Test results reported in ChEMBL document CHEMBL1255488, “Semimechanistic pharmacokinetic-pharmacodynamic model with adaptation development for time-kill experiments of ciprofloxacin against Pseudomonas aeruginosa” (2010).
Converted amounts (≈) assume the structure as drawn.

Key:
Pseudomonas aeruginosa [1] = assay: Antimicrobial activity against Pseudomonas aeruginosa PAO1 by microdilution method in presence of 40 ug/ml efflux-pump inhibitor PAbetaN
Pseudomonas aeruginosa [2] = assay: microbe, parasite or virus in culture; conditions: PAO1
Description: Antimicrobial activity against 0.12 ug/ml compound pre-treated Pseudomonas aeruginosa PAO1 in presence of 0.25 ug/ml of compound during plating experiment by microdilution method in presence of 40 ug/ml efflux-pump inhibitor PAbetaN

Pseudomonas aeruginosa [3] = assay: microbe, parasite or virus in culture; conditions: PAO1; remark: listed apart in the source
Description: Antimicrobial activity against 0.12 ug/ml compound pre-treated Pseudomonas aeruginosa PAO1 in presence of 1 ug/ml of compound during plating experiment by microdilution method in presence of 40 ug/ml efflux-pump inhibitor PAbetaN

Pseudomonas aeruginosa [4] = assay: microbe, parasite or virus in culture; conditions: PAO1; remark: listed apart in the source
Description: Antimicrobial activity against 0.25 ug/ml compound pre-treated Pseudomonas aeruginosa PAO1 in presence of 0.25 ug/ml of compound during plating experiment by microdilution method in presence of 40 ug/ml efflux-pump inhibitor PAbetaN

Pseudomonas aeruginosa [5] = assay: microbe, parasite or virus in culture; conditions: PAO1; remark: listed apart in the source
Description: Antimicrobial activity against 0.25 ug/ml compound pre-treated Pseudomonas aeruginosa PAO1 by microdilution method

Pseudomonas aeruginosa [6] = assay: microbe, parasite or virus in culture; conditions: PAO1; remark: listed apart in the source
Description: Antimicrobial activity against 0.12 ug/ml compound pre-treated Pseudomonas aeruginosa PAO1 in presence of 0.5 ug/ml of compound during plating experiment by microdilution method in presence of 40 ug/ml efflux-pump inhibitor PAbetaN

Pseudomonas aeruginosa [7] = assay: Antimicrobial activity against Pseudomonas aeruginosa PAO7H by microdilution method in presence of 40 ug/ml efflux-pump inhibitor PAbetaN
Pseudomonas aeruginosa [8] = assay: microbe, parasite or virus in culture; conditions: PAO1; remark: listed apart in the source
Description: Antimicrobial activity against 0.12 ug/ml compound pre-treated Pseudomonas aeruginosa PAO1 by microdilution method

Pseudomonas aeruginosa [9] = assay: microbe, parasite or virus in culture; conditions: PAO1; remark: listed apart in the source
Description: Antimicrobial activity against 0.25 ug/ml compound pre-treated Pseudomonas aeruginosa PAO1 in presence of 0.25 ug/ml of compound during plating experiment by microdilution method

Pseudomonas aeruginosa [10] = assay: microbe, parasite or virus in culture; conditions: PAO1; remark: listed apart in the source
Description: Antimicrobial activity against 0.12 ug/ml compound pre-treated Pseudomonas aeruginosa PAO1 by microdilution method in presence of 40 ug/ml efflux-pump inhibitor PAbetaN

Pseudomonas aeruginosa [11] = assay: Antimicrobial activity against Pseudomonas aeruginosa PAO7H by microdilution method
Pseudomonas aeruginosa [12] = assay: microbe, parasite or virus in culture; conditions: PAO1; remark: listed apart in the source
Description: Antimicrobial activity against 0.12 ug/ml compound pre-treated Pseudomonas aeruginosa PAO1 in presence of 2 ug/ml of compound during plating experiment by microdilution method in presence of 40 ug/ml efflux-pump inhibitor PAbetaN

Pseudomonas aeruginosa [13] = assay: microbe, parasite or virus in culture; conditions: PAO1; remark: listed apart in the source
Description: Antimicrobial activity against 0.25 ug/ml compound pre-treated Pseudomonas aeruginosa PAO1 in presence of 0.5 ug/ml of compound during plating experiment by microdilution method

Pseudomonas aeruginosa [14] = assay: microbe, parasite or virus in culture; conditions: PAO1; remark: listed apart in the source
Description: Antimicrobial activity against 0.12 ug/ml compound pre-treated Pseudomonas aeruginosa PAO1 in presence of 0.25 ug/ml of compound during plating experiment by microdilution method

Pseudomonas aeruginosa [15] = assay: microbe, parasite or virus in culture; conditions: PAO1; remark: listed apart in the source
Description: Antimicrobial activity against 0.25 ug/ml compound pre-treated Pseudomonas aeruginosa PAO1 in presence of 1 ug/ml of compound during plating experiment by microdilution method

Pseudomonas aeruginosa [16] = assay: microbe, parasite or virus in culture; conditions: PAO1; remark: listed apart in the source
Pseudomonas aeruginosa [17] = assay: microbe, parasite or virus in culture; conditions: PAO1; remark: listed apart in the source
Description: Antimicrobial activity against 0.25 ug/ml compound pre-treated Pseudomonas aeruginosa PAO1 in presence of 0.5 ug/ml of compound during plating experiment by microdilution method in presence of 40 ug/ml efflux-pump inhibitor PAbetaN

Pseudomonas aeruginosa [18] = assay: microbe, parasite or virus in culture; conditions: PAO1; remark: listed apart in the source
Description: Antimicrobial activity against 0.25 ug/ml compound pre-treated Pseudomonas aeruginosa PAO1 in presence of 1 ug/ml of compound during plating experiment by microdilution method in presence of 40 ug/ml efflux-pump inhibitor PAbetaN

O=C(O)c1cn(C2CC2)c2cc(N3CCNCC3)c(F)cc2c1=O [CIPROFLOXACIN]
MIC (Pseudomonas aeruginosa [1]): 0.06 µg/mL
MIC (Pseudomonas aeruginosa [2]): 0.12 µg/mL (≈ 0.362 µM)
MIC (Pseudomonas aeruginosa [3]): 0.12 µg/mL (≈ 0.362 µM)
MIC (Pseudomonas aeruginosa [4]): 0.12 µg/mL (≈ 0.362 µM)
MIC (Pseudomonas aeruginosa [5]): 1 µg/mL (≈ 3.02 µM)
MIC (Pseudomonas aeruginosa [6]): 0.12 µg/mL (≈ 0.362 µM)
MIC (Pseudomonas aeruginosa [7]): 0.06 µg/mL
MIC (Pseudomonas aeruginosa [8]): 1 µg/mL (≈ 3.02 µM)
MIC (Pseudomonas aeruginosa [9]): 1 µg/mL (≈ 3.02 µM)
MIC (Pseudomonas aeruginosa [10]): 0.06 µg/mL (≈ 0.181 µM)
MIC (Pseudomonas aeruginosa [11]): 1 µg/mL (≈ 3.02 µM)
MIC (Pseudomonas aeruginosa [12]): 0.12 µg/mL (≈ 0.362 µM)
MIC (Pseudomonas aeruginosa [13]): 1 µg/mL (≈ 3.02 µM)
MIC (Pseudomonas aeruginosa [14]): 1 µg/mL (≈ 3.02 µM)
MIC (Pseudomonas aeruginosa [15]): 1 µg/mL (≈ 3.02 µM)
MIC (Pseudomonas aeruginosa [16]): 0.06 µg/mL (≈ 0.181 µM)
MIC (Pseudomonas aeruginosa [17]): 0.12 µg/mL (≈ 0.362 µM)
MIC (Pseudomonas aeruginosa [18]): 0.12 µg/mL (≈ 0.362 µM)
